Patent US11548888B2, “KRas G12C inhibitors” (Mirati Therapeutics, Inc., priority 2019, dated 2023)

Target: T1, KRas G12C (Homo sapiens, UniProt P01116, G12C)
T1 construct: NCI-H358 cells (ATCC CRL-5807) express KRas G12C
Assay: Inhibition of KRas G12C-dependent cell growth: Phospho-ERK in NCI-H358 cells
Type: cell-based
Conditions: NCI-H358 cells expressing KRas G12C; Phospho-ERK (Thr202/Tyr204) normalized to GAPDH; 3 hours compound; 4 parameter fit
Procedure, shortened: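 Phospho-ERK read-out in KRas G12C-expressing NCI-H358 cells after 3 h compound treatment (final DMSO 0.5%), by in-cell infrared immunodetection. Signal normalized to GAPDH and to DMSO controls. 4-parameter curve fit gave IC50.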

T1 sequence (P01116 1-188 isoform P01116-2 G12C): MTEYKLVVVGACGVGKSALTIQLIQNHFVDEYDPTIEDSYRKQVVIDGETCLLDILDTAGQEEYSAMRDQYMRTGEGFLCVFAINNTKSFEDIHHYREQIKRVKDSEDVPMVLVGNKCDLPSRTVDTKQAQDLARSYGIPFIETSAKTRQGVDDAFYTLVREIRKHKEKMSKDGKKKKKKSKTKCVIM

Row | IC50 [nM] | SMILES
1 | 585 | C=CC(=O)N1CCN(c2nc(OC[C@@H]3CCCN3C)nc3c(F)c(-c4cccc5ccc(F)c(Cl)c45)ncc23)[C@H](C)C1 [Example 155]
2 | 3780 | C=CC(=O)N1CC[C@@H]2[C@H]1CN2c1nc(OC(C)C)nc2c(F)c(-c3cccc4ccc(F)c(Cl)c34)ncc12 [Example 270]
3 | 88 | C=C(F)C(=O)N1CCN(c2nc(OC[C@@H]3CC4CCN3C4)nc3c(F)c(-c4cccc5ccc(F)c(Cl)c45)ncc23)C[C@@H]1CC#N (stereo partly drawn) [Example 244]
4 | 2 | C=C(F)C(=O)N1CCN(c2nc(OCC34CCCN3C[C@H](F)C4)nc3c(F)c(-c4cccc5ccc(F)c(Cl)c45)ncc23)C[C@@H]1CC#N (stereo partly drawn) [Example 145]
5 | 16000 | C=CC(=O)N1CCN(c2ncnc3cc(-c4c(O)cccc4F)ncc23)CC1 [Example 3, 1-(4-(7-(2-fluoro-6-hydroxyphenyl)pyrido[4,3-d]pyrimidin-4-yl)piperazin-1-yl)prop-2-en-1-one]
6 | 230 | C=CC(=O)N1CCN(c2nc(C(F)F)nc3c(F)c(-c4cccc5ccc(F)c(Cl)c45)ncc23)C[C@@H]1CC#N [Example 237]
7 | 168 | C=C(F)C(=O)N1CCN(c2nc(OCCCN3C[C@@H]4C[C@H]3CO4)nc3c(F)c(-c4cncc5cccc(Cl)c45)ncc23)C[C@@H]1CC#N [Example 37, 2-[(2S)-4-[7-(5-chloro-4-isoquinolyl)-8-fluoro-2-[3-[(1S,4S)-2-oxa-5-azabicyclo[2.2.1]heptan-5-yl]propoxy]pyrido[4,3-d]pyrimidin-4-yl]-1-(2-fluoroprop-2-enoyl)piperazin-2-yl]acetonitrile]
8 | 134 | C=CC(=O)N1CC[C@@H]2[C@H]1CN2c1ncnc2c(F)c(-c3cccc4ccc(F)c(Cl)c34)ncc12 [Example 175]
9 | 7 | C#Cc1cccc2cccc(-c3ncc4c(N5CCN(C(=O)C(=C)F)[C@@H](CC#N)C5)nc(OC[C@@H]5CCCN5C)nc4c3F)c12 [Example 212, 2-((S)-4-(7-(8-ethynylnaphthalen-1-yl)-8-fluoro-2-(((S)-1-methylpyrrolidin-2-yl)methoxy)pyrido[4,3-d]pyrimidin-4-yl)-1-(2-fluoroacryloyl)piperazin-2-yl)acetonitrile]
10 | 90 | Cc1cccc2cncc(-c3ncc4c(N5CCN(C(=O)/C=C/CF)[C@@H](CC#N)C5)nc(OC[C@@H]5CC(F)(F)CN5C)nc4c3F)c12 [Example 55, 2-((S)-4-(2-(((S)-4,4-difluoro-1-methylpyrrolidin-2-yl)methoxy)-8-fluoro-7-(5-methylisoquinolin-4-yl)pyrido[4,3-d]pyrimidin-4-yl)-1-((E)-4-fluorobut-2-enoyl)piperazin-2-yl)acetonitrile]
11 | 2850 | C=C(F)C(=O)N1CCN(c2nc(OC[C@@H]3CCCN3C)nc3c(OCC(F)(F)F)c(-c4cccc5cccc(C)c45)ncc23)C[C@@H]1CC#N [Example 63, 2-((S)-1-(2-fluoroacryloyl)-4-(7-(8-methylnaphthalen-1-yl)-2-(((S)-1-methylpyrrolidin-2-yl)methoxy)-8-(2,2,2-trifluoroethoxy)pyrido[4,3-d]pyrimidin-4-yl)piperazin-2-yl)acetonitrile]
12 | 35 | C=C(F)C(=O)N1CCN(c2nc(OCC34CCCN3CCOC4)nc3c(F)c(-c4cccc5ccc(F)c(Cl)c45)ncc23)C[C@@H]1CC#N (stereo partly drawn) [Example 144]
13 | 976 | C=C(F)C(=O)N1CCN(c2nc(OCCNS(C)(=O)=O)nc3c(F)c(-c4cccc5ccc(F)c(Cl)c45)ncc23)C[C@@H]1CC#N [Example 120]
14 | 31 | C=C(F)C(=O)N1CCN(c2nc(OC[C@H]3[C@@H]4CC[C@@H](C4)N3CCF)nc3c(F)c(-c4cccc5ccc(F)c(Cl)c45)ncc23)C[C@@H]1CC#N [Example 195]
15 | 14 | C=C(F)C(=O)N1CCN(c2nc(OC[C@@H]3CCCN3C)nc3c(F)c(-c4cccc5ccc(F)c(C)c45)ncc23)C[C@@H]1CC#N [Example 86]
16 | 118 | C=C(F)C(=O)N1CCN(c2nc(OC[C@H]3CCCN3C)nc3c(F)c(-c4cccc5cccc(C)c45)ncc23)C[C@@H]1CC#N [Example 16, 2-((S)-4-(8-fluoro-7-(8-methylnaphthalen-1-yl)-2-(((R)-1-methylpyrrolidin-2-yl)methoxy)pyrido[4,3-d]pyrimidin-4-yl)-1-(2-fluoroacryloyl)piperazin-2-yl)acetonitrile]
17 | 187 | C=CC(=O)N1CCN(c2ncnc3c(F)c(-c4c(Cl)c(C)cc5[nH]ncc45)ncc23)C[C@@H]1CC#N [Example 242]
18 | 30 | CO[C@@H]1C[C@@H](COc2nc(N3CCN(C(=O)/C=C/CF)[C@@H](CC#N)C3)c3cnc(-c4cccc5cccc(Cl)c45)c(F)c3n2)N(C)C1 [Example 27, 2-[(2S)-4-[7-(8-chloro-1-naphthyl)-8-fluoro-2-[[(2S,4R)-4-methoxy-1-methyl-pyrrolidin-2-yl]methoxy]pyrido[4,3-d]pyrimidin-4-yl]-1-[(E)-4-fluorobut-2-enoyl]piperazin-2-yl]acetonitrile]
19 | 10000 | C=CC(=O)N1CCN(c2nc(C)nc3c(F)c(-c4cccc5cccc(Cl)c45)ncc23)CC1 [Example 153]
20 | 15 | C=CC(=O)N1CC[C@@H]2[C@H]1CN2c1ncnc2c(F)c(-c3cc(O)cc4cccc(Cl)c34)ncc12 [Example 288, 1-((1R,5R)-6-(7-(8-chloro-3-hydroxynaphthalen-1-yl)-8-fluoropyrido[4,3-d]pyrimidin-4-yl)-2,6-diazabicyclo[3.2.0]heptan-2-yl)prop-2-en-1-one]
21 | 10000 | C=CC(=O)N1CC2CN(c3nc(OC[C@@H]4CCCN4C)nc4c(F)c(-c5cncc6cccc(Cl)c56)ncc34)CC2C1 (stereo partly drawn) [Example 105]

Row | IC50 [nM] | SMILES
22 | 21 | C=CC(=O)N1CCN(c2ncnc3c(F)c(-c4cccc5ccc(F)c(Cl)c45)ncc23)C[C@@H]1CC#N [Example 109]
23 | 1250 | C=C(F)C(=O)N1CCN(c2nc(OCc3cc4ncccc4[nH]3)nc3c(F)c(-c4cccc5ccc(F)c(Cl)c45)ncc23)C[C@@H]1CC#N [Example 142]
24 | 1070 | C=CC(=O)N1CC[C@@H]2[C@H]1CN2c1nc(NC)nc2c(F)c(-c3cccc4ccc(F)c(Cl)c34)ncc12 [Example 271]
25 | 553 | C=CC(=O)N1CC[C@@H]2[C@H]1CN2c1ncnc2c(F)c(-c3cccc(Cl)c3C3CC3)ncc12 [Example 277]
26 | 31 | C=C(F)C(=O)N1CCN(c2nc(OC[C@@H]3CCN3CC)nc3c(F)c(-c4cccc5ccc(F)c(Cl)c45)ncc23)C[C@@H]1CC#N [Example 173]
27 | 10000 | C=CC(=O)N1CCN(c2ncnc3c(F)c(-c4cccc5ccccc45)ncc23)CC1 [Example 223]
28 | 90 | C=CC(=O)N1CC[C@@H]2[C@H]1[C@H](C)N2c1ncnc2c(F)c(-c3cccc4ccc(F)c(Cl)c34)ncc12 [Example 280]
29 | 35 | C=CC(=O)N1CC[C@@H]2[C@H]1CN2c1nc(OC[C@@H]2[C@H]3C[C@H]3CN2C)nc2c(F)c(-c3cccc4ccc(F)c(Cl)c34)ncc12 [Example 253]
30 | 7170 | C=CC(=O)N1CCC2(C1)CN(c1ncnc3c(F)c(-c4cccc5ccc(F)c(Cl)c45)ncc13)C2 [Example 138]
31 | 53 | C=C(F)C(=O)N1CCN(c2nc(OC[C@@H]3C[C@@H](F)CN3C)nc3c(F)c(-c4cncc5cccc(C)c45)ncc23)C[C@@H]1CC#N [Example 50, 2-[(2S)-4-[8-fluoro-2-[[(2S,4R)-4-fluoro-1-methyl-pyrrolidin-2-yl]methoxy]-7-(5-methyl-4-isoquinolyl)pyrido[4,3-d]pyrimidin-4-yl]-1-(2-fluoroprop-2-enoyl)piperazin-2-yl]acetonitrile]
32 | 10000 | C=CC(=O)N1CCN(c2ncnc3c(F)c(-c4cccc5ccc(F)c(Cl)c45)ncc23)C[C@@H]1CC(F)F [Example 183]
33 | 2 | C=C(F)C(=O)N1CCN(c2nc(OCC34CCCN3CCC4)nc3c(F)c(-c4cccc5cccc(Cl)c45)ncc23)C[C@@H]1CC#N [Example 77]
34 | 10000 | C=CC(=O)N1CC[C@@H]2[C@H]1CN2c1nc(N(C)CC)nc2c(F)c(-c3cccc4ccc(F)c(Cl)c34)ncc12 [Example 274]
35 | 3350 | C=CC(=O)N1CCN(c2ncnc3c(F)c(-c4cccc5cccc(Cl)c45)ncc23)CC1 [Example 137]
36 | 70 | COC/C=C/C(=O)N1CCN(c2nc(OC[C@@H]3CCCN3C)nc3c(F)c(-c4cccc5cccc(C)c45)ncc23)C[C@@H]1CC#N [Example 61, 2-[(2S)-4-[8-fluoro-7-(8-methyl-1-naphthyl)-2-[[(2S)-1-methylpyrrolidin-2-yl]methoxy]pyrido[4,3-d]pyrimidin-4-yl]-1-[(E)-4-methoxybut-2-enoyl]piperazin-2-yl]acetonitrile]
37 | 1470 | C=CC(=O)N1CC[C@@H]2[C@H]1CN2c1nc(OC2CC2)nc2c(F)c(-c3cccc4ccc(F)c(Cl)c34)ncc12 [Example 272]
38 | 362 | C=C(F)C(=O)N1CCN(c2nc(OCC3CN(C)CC3(F)F)nc3c(F)c(-c4cccc5ccc(F)c(Cl)c45)ncc23)C[C@@H]1CC#N (single isomer, unassigned) [Example 180]
39 | 300 | C=CC(=O)N1CCN(c2nc(OC[C@@H]3CCCN3C)nc3cc(-c4cc(O)cc5ccccc45)ncc23)CC1 [Example 6, 1-[4-[7-(3-hydroxy-1-naphthyl)-2-[[(2S)-1-methylpyrrolidin-2-yl]methoxy]pyrido[4,3-d]pyrimidin-4-yl]piperazin-1-yl]prop-2-en-1-one]
40 | 67 | C=C(F)C(=O)N1CCN(c2nc(OC[C@H]3CN(C)C[C@H]3F)nc3c(F)c(-c4cccc5ccc(F)c(Cl)c45)ncc23)C[C@@H]1CC#N [Example 193]
41 | 1130 | C=CC(=O)N1CC[C@@H]2[C@H]1CN2c1nc(OCC)nc2c(F)c(-c3cccc4ccc(F)c(Cl)c34)ncc12 [Example 268]
42 | 91 | C=CC(=O)N1CCN(c2ncnc3c(F)c(-c4c(C)c(Cl)cc5[nH]ncc45)ncc23)C[C@@H]1CC#N [Example 250]
